A short description of data set [1]: Cytotoxic concentration (CC50), MTS. It is filed as cell-based. The settings on record: African green monkey, Vero cells. The protocol: Cytotoxic concentrations (CC50) were also studied using Vero cells. Briefly, the 10^4 cells were seeded into each well of 96-well plates. After an overnight incubation, phenolic lipids were serially diluted in DMSO to the final concentrations as follows; 25, 50, 100, 200, 300, 400, and 500 µM. Each concentration was performed in quadruplicates. DMSO at 1% was used as a mock treatment referring to 100% cell viability. Cells were incubated for 48 h before cell viability was accessed using CellTiler 96® Aqueous One Solution Cell Proliferation Assay kit (Promega, Wisconsin, USA). Non-linear regression analysis was used to determine cytotoxic concentrations (CC50) of each experiment.

The test system of data set [2] is normal human lung fibroblast cell line, GM07492A. Details: method as in PMID 27934289. The settings on record: read-out: cytotoxicity value (CC50); cited from earlier work.
The subject of another data set is ZIKV (sv0010/15). As to the kind of experiment: Efficacy (EC50) in infected Vero cells. Format: cell-based, Zika virus.
The next data set concerns DENV2. As to the kind of experiment: Time of drug addition study (TOA). Format: cell-based, Dengue virus. The settings on record: 10 and 20 µM, added 0-48 h after infection, 72 h incubation. How it is done: Time of drug addition assay is a standard method to primarily identify the possible target of a newly characterized compound[20]. Based on the previous efficacy results, cardol triene was chosen as a representative of all CNSL-derived phenolic lipids. Cardol triene was prepared in DMSO and added to the final concentrations of 10 µM and 20 µM to DENV2 infected Vero cells (M.O.I. of 0.1). The compound was added to the cells at different time-points. DMSO alone was added to the infected cells as a mock treatment. After 72 h incubation, cell lysates and supernatants were collected for analysis of intracellular RNAs and infectious virions by RT-qPCR and plaque titration, respectively.
Vero (5 × 10^4) cells were seeded into each well of 24-well plates. cells were infected with DENV2 (M.O.I. of 0.1) after an overnight incubation[44],[45]. Cardol triene (C15:3) at 10 and 20 µM were added to the cells during (0 h) and after infections at early time-points as follows; 1, 2, 4, 6, 8, 10, 12, 24, 36, and 48 h. Moreover, late time-points after were also accessed at 12, 14, 16, 18, 20, 22, 24, 36, 48, 60, and 72 h after infections. DMSO alone was added to the infected cells at respective time-points as a mock treatment referring to 100% infectivities. […] Data were calculated, assembled, and reported as percent intracellular RNAs and infectious virions under the drug treatment at designated time-points.

The subject of data set [3] is BHK-21/DENV2 replicon cells. As to the kind of experiment: Replicon inhibition study, RT-qPCR of DENV2 NS1. The settings on record: 72 h. Format: cell-based, Dengue virus. The protocol: (§1) We analyzed the replication inhibition using BHK-21/DENV2 replicon cells stably expressed the non-structural proteins. Cardol triene at 10 µM and 20 µM were added to the replicon cells for 72 h and the replication inhibition was accessed by RT-qPCR of DENV2 NS1. Ribavirin, a known inhibitor of flaviviral replication, was used as a positive inhibition control. […] Replicon cell viability under cardol triene treatment was also analyzed using an MTS assay. […] Therefore, we concluded that cardol triene inhibited DENV RNA replicon replication, potentially in dose-dependent manner.
BHK-21 (5 × 10^4) cells expressing DENV-2 replicon (BHK-21/DENV2)[44] were seeded as previously described. Cardol triene at 10 µM and 20 µM, DMSO, and ribavirin (TargetMol, USA) were added to the replicon cells and incubated at 37 °C for 3 days. Cells lysates were collected and viral RNA was quantified by RT-qPCR as previously described. Data were reported as percent inhibition compared with ribavirin. Three biological replicates were performed and results were means and SEM of all replicates.
For orientation: A replicon is a self-replicating genome or part of one, used to study replication in cells.

The subject of another data set is ZIKV. Kind of data set: Fusion inhibition study in C6/36 cells. It is filed as cell-based, Zika virus. The settings on record: 10 µM, C6/36, M.O.I. of 1, 48 h, MES. The protocol: Fusion inhibition study[25]–[27] of DENV and ZIKV were used to confirm the findings. Briefly, cardol triene at 10 µM was added to DENV2 or ZIKV (Fig. 6C-D) infected C6/36 cells at the M.O.I. of 1 for 48 h before inducing acidic condition by MES. The 4G2 antibody was used as a positive control inhibiting both DENV2 and ZIKV fusion. […] Therefore, we concluded that one of the targets of cardol triene, and other CNSL-derived phenolic lipids, was the kl loops of DENV E protein, thus preventing the conformational change of DENV dimer to trimer that was required to initiate pH-dependent fusion.
C6/36 (2 × 10^5) cells were seeded into 24-well plates before infection with DENV2 and ZIKV (M.O.I. of 1) as described. Cardol triene at 10 µM were introduced to the DENV2 and ZIKV infected cells during and after infection. […] Cells were incubate at 28 °C for 2 days before addition of 0.5 M 2-(N-morpholino) ethanesulfonic acid (MES) (pH 5.0) (Sigma Aldrich, St Louis, USA). Moreover, cells from selected wells subsequently underwent DAPI staining. Cell-cell fusion was observed under brightfield and fluorescence using an Eclipse TS100 Inverted Routine Microscope (Nikon, New York, USA).

Data set [4] deals with BHK-21/DENV2 replicon cells. Kind of data set: Replicon cell viability, MTS assay. The settings on record: 10 µM and 20 µM, 72 h. It is filed as cell-based. How it is done: as §1
Figure 7 Replicon inhibition study. (A) DENV2/BHK-21 replicon (5 × 10^4 cells) were treated with cardol triene or ribavirin for 72 h. Percent inhibition was calculated from RT-qPCR of cell lysate. (B) Percent DENV2/BHK-21 replicon cell viability at 72 h under 10 and 20 µM cardol triene. Error bars represented standard error of means (SEM) from three independent experiments.

For the compound `C=CC/C=C/C/C=C/CCCCCCCc1cc(O)cc(O)c1` [Cardol triene, 5-[8(Z), 11(Z), 14-pentadecatrienyl]resorcinol], in data set [1], it took 207 ± 5.24 µM to reach half-maximal cytotoxicity (CC50 at 48 h). Further, the CC50 – broadly, the concentration giving 50% cytotoxicity – in data set [2] was 193 ± 6 µM. Besides, in the data set with ZIKV (sv0010/15), the Zika virus inhibition result was “did not inhibit”. In addition, the “intracellular RNAs and infectious virions by time of drug addition” value in the data set with DENV2 was “decreased immediately at 1 h and persisted until 48 h after infections”. Further, the “DENV2 RNA inhibition” value in data set [3] (10 µM) was 76.60 ± 7.59%; in data set [3] (20 µM) it was 89.44 ± 4.02%. Besides, the “ZIKV pH-dependent cell fusion” value in the data set with ZIKV is “ZIKV-induced fused cells and nuclei were present”. For the same compound, in data set [4], the replicon cell viability result was “did not have effect on cell viability”.
